In the supplement of paper PMC6045584:
± gives the standard deviation of the averaged measurements.

Experiments:
[1] = compound: O=C(O)C1(C(=O)O)CCC1.[NH2-].[NH2-].[Pt+2] [CARBOPLATIN]; test: surviving fraction relative to DMSO-only wells; higher = less growth inhibition; settings: exposure time: 5 days
Method in brief: (§1)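 Lines were retained only if, across three screens, replicate Pearson r was >0.7 and median Z' was >0.3. Viability was measured as CellTiter-Glo luminescence and reported as surviving fraction relative to the median of DMSO-only wells. Readings followed 10 minutes at room temperature, after log-phase tumour cells seeded at 250–500 per well in 384-well plates had been exposed, from 24 hours after seeding, continuously for five days to inhibitors at 0.5, 1, 5, 10, 50, 100, 500 and 1000 nM.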

[2] = compound: Cc1ccc(-c2cc(C(F)(F)F)nn2-c2ccc(S(N)(=O)=O)cc2)cc1 [CELECOXIB]; test: as above; settings: exposure time: 5 days
Method in brief: as §1

Row | Test System | surviving fraction ([1]; 0.5 nM) | surviving fraction ([1]; 1 nM) | surviving fraction ([1]; 5 nM) | surviving fraction ([1]; 10 nM) | surviving fraction ([1]; 50 nM) | surviving fraction ([1]; 100 nM) | surviving fraction ([1]; 500 nM) | surviving fraction ([1]; 1000 nM) | surviving fraction ([2]; 0.5 nM) | surviving fraction ([2]; 1 nM) | surviving fraction ([2]; 5 nM) | surviving fraction ([2]; 10 nM) | surviving fraction ([2]; 50 nM) | surviving fraction ([2]; 100 nM) | surviving fraction ([2]; 500 nM) | surviving fraction ([2]; 1000 nM)
1 | NCIH441 LUNG | 1.08 ± 0.027 | 1.12 ± 0.063 | 1.08 ± 0.049 | 1.13 ± 0.093 | 1.07 ± 0.2 | 0.961 ± 0.091 | 1.02 ± 0.16 | 1.04 ± 0.21 | 1.16 ± 0.019 | 1.19 ± 0.043 | 1.1 ± 0.11 | 1.11 ± 0.035 | 1.11 ± 0.068 | 1.06 ± 0.17 | 1.06 ± 0.14 | 1.1 ± 0.19
2 | NY BONE | 1.03 ± 0.02 | 0.9813 ± 0.0058 | 1.08 ± 0.019 | 1.03 ± 0.024 | 1.09 ± 0.019 | 1.099 ± 0.0055 | 1.05 ± 0.012 | 1.03 ± 0.016 | 0.989 ± 0.03 | 1.04 ± 0.041 | 1.09 ± 0.038 | 1.08 ± 0.022 | 1.11 ± 0.047 | 1.1 ± 0.039 | 1.01 ± 0.021 | 1.01 ± 0.053
3 | OS25HAL BONE | 1.09 ± 0.045 | 1.03 ± 0.019 | 0.994 ± 0.034 | 1.03 ± 0.019 | 1.18 ± 0.025 | 1.17 ± 0.053 | 1.06 ± 0.04 | 1.14 ± 0.029 | 1.03 ± 0.017 | 1.02 ± 0.033 | 1.06 ± 0.021 | 1.07 ± 0.022 | 1.06 ± 0.044 | 1.1 ± 0.035 | 1.15 ± 0.08 | 1.08 ± 0.051
4 | OSHN BONE | 1.091 ± 0.0051 | 1.06 ± 0.022 | 1.09 ± 0.035 | 1.05 ± 0.044 | 1.141 ± 0.0049 | 1.13 ± 0.015 | 1.15 ± 0.014 | 1.113 ± 0.011 | 1.099 ± 0.0076 | 1.091 ± 0.0078 | 1.13 ± 0.018 | 1.1 ± 0.019 | 1.132 ± 0.0091 | 1.15 ± 0.029 | 1.15 ± 0.023 | 1.11 ± 0.015
5 | PCI30 HEADNECK | 1.07 ± 0.036 | 1.09 ± 0.04 | 1.03 ± 0.021 | 1.11 ± 0.093 | 1.12 ± 0.067 | 1.08 ± 0.03 | 1.07 ± 0.079 | 1.07 ± 0.039 | 1.02 ± 0.095 | 1 ± 0.057 | 1.07 ± 0.044 | 1.07 ± 0.046 | 1.03 ± 0.12 | 1.01 ± 0.013 | 0.975 ± 0.051 | 0.928 ± 0.038
6 | RDES SOFT TISSUE | 1.23 ± 0.035 | 0.987 ± 0.091 | 1.14 ± 0.1 | 1.11 ± 0.083 | 1.09 ± 0.15 | 1.23 ± 0.13 | 1.08 ± 0.099 | 1.15 ± 0.14 | 1.11 ± 0.11 | 1.16 ± 0.14 | 1.19 ± 0.069 | 1.11 ± 0.077 | 1.16 ± 0.25 | 1.27 ± 0.11 | 1.17 ± 0.14 | 1.15 ± 0.045
7 | S68 BREAST | 1.08 ± 0.28 | 1.01 ± 0.082 | 0.9 ± 0.16 | 1.4 ± 0.15 | 1.22 ± 0.6 | 1.14 ± 0.38 | 1.11 ± 0.21 | 1.29 ± 0.11 | 1.18 ± 0.21 | 1.07 ± 0.24 | 1.26 ± 0.17 | 1.19 ± 0.15 | 1 ± 0.29 | 1.21 ± 0.15 | 0.95 ± 0.34 | 1.2 ± 0.11
8 | SCC003 HEADNECK | 1.1 ± 0.075 | 1.06 ± 0.04 | 1.1 ± 0.039 | 1.04 ± 0.025 | 1.14 ± 0.027 | 1.03 ± 0.035 | 1.13 ± 0.17 | 0.995 ± 0.051 | 1.07 ± 0.033 | 1.1 ± 0.049 | 1.05 ± 0.034 | 1.06 ± 0.027 | 1.12 ± 0.11 | 1.09 ± 0.049 | 1.13 ± 0.11 | 1.08 ± 0.067
9 | SCC36 HEADNECK | 1.07 ± 0.03 | 0.992 ± 0.15 | 1.09 ± 0.096 | 1.07 ± 0.097 | 1.06 ± 0.17 | 1.04 ± 0.078 | 1.05 ± 0.031 | 0.85 ± 0.12 | 1.05 ± 0.029 | 0.924 ± 0.11 | 1.13 ± 0.057 | 1.09 ± 0.025 | 1.16 ± 0.12 | 1.08 ± 0.044 | 1.13 ± 0.079 | 1.04 ± 0.14
10 | SCC47 HEADNECK | 1.21 ± 0.072 | 1.17 ± 0.042 | 1.19 ± 0.017 | 1.19 ± 0.071 | 1.26 ± 0.054 | 1.21 ± 0.16 | 1.14 ± 0.019 | 1.08 ± 0.045 | 1.08 ± 0.089 | 1.11 ± 0.092 | 1.09 ± 0.096 | 1.12 ± 0.067 | 1.094 ± 0.0075 | 1.1 ± 0.026 | 1.1 ± 0.054 | 1.11 ± 0.033
11 | SG27 HEADNECK | 1.13 ± 0.014 | 1.05 ± 0.017 | 1.12 ± 0.1 | 1.04 ± 0.038 | 1.18 ± 0.12 | 1.02 ± 0.13 | 1.14 ± 0.27 | 1.03 ± 0.11 | 1.18 ± 0.086 | 1.14 ± 0.069 | 1.14 ± 0.09 | 1.13 ± 0.046 | 1.3 ± 0.084 | 1.17 ± 0.23 | 1.12 ± 0.15 | 1.21 ± 0.081
12 | SG28 HEADNECK | 1.23 ± 0.042 | 1.1 | 1.07 ± 0.065 | 0.97 ± 0.0014 | 1.024 ± 0.0035 | 1 ± 0.084 | 1.11 ± 0.034 | 1.18 ± 0.19 | 1.19 ± 0.26 | 1.19 ± 0.04 | 1.24 ± 0.099 | 1.2 ± 0.13 | 1.2 ± 0.18 | 1.233 ± 0.0057 | 1.16 ± 0.027 | 1.29 ± 0.059
13 | SG31 HEADNECK | 1.15 ± 0.14 | 1.21 ± 0.11 | 0.963 ± 0.12 | 1.12 ± 0.24 | 1.16 ± 0.1 | 1.06 ± 0.19 | 1.17 ± 0.083 | 1.21 ± 0.14 | 1.27 ± 0.19 | 1.4 ± 0.5 | 1.11 ± 0.21 | 1.11 ± 0.25 | 1.15 ± 0.17 | 1.1 ± 0.063 | 1.63 ± 0.2 | 1.52 ± 0.15
14 | SIHA CERVIX | 1.14 ± 0.065 | 1.18 ± 0.038 | 1.13 ± 0.088 | 1.21 ± 0.094 | 1.16 ± 0.1 | 1.21 ± 0.044 | 1.08 ± 0.048 | 1.14 ± 0.02 | 1.08 ± 0.065 | 1 ± 0.064 | 1.08 ± 0.033 |  | 1.06 ± 0.072 | 1.11 ± 0.026 | 1.07 ± 0.067 | 1.05 ± 0.064
